From US20050197350A1, “Novel quinoline, tetrahydroquinazoline, and pyrimidine derivatives and methods of treatment related to the use thereof” (TAISHO PHARMACEUTICAL CO., LTD., priority 2003, published 2005) come the findings set out here.

Read-outs that look alike come from different tables or passages of the source.

This assay has as its system MCH receptors. Briefly: MCH receptor activity class (method not given).
The mark [1] stands for this setting: class by percent of control at 10^-7 M or IC50.
Where [2] appears, read: MCH receptor, class by percent of control at 10^-7 M or IC50.
The mark [3] stands for this setting: class 1-3 by percent of control at 10^-7 M or IC50.
[4] abbreviates: class by percent of control at 10^−7 M or IC50.
Setting [5] is: MCH receptor activity class 1-3 (percent of control at 10^-7 M or IC50).

As to `Cc1ccc(Cl)c(C(=O)NC[C@H]2CC[C@@H](Nc3cc(N(C)C)c4ccccc4n3)CC2)c1F` [compound 235], under setting [1], the class is 3 (Class 3 The value of percent of control at 10^−7 M was more than 60% or the value of IC50 was more than 200 nM.). The same measure, in the same setting: in the case of `CCOc1cc(OCC)c(OCC)cc1CNC[C@H]1CC[C@@H](Nc2nccc(N(C)C)n2)CC1` [compound 1295] it was 1 (Class 1: The value of percent of control at 10^−7 M was less than 40% or the value of IC50 was less than 50 nM.). Turning to `CN(C)c1nc(N[C@H]2CC[C@@H](NC(=S)Nc3cc(Cl)c(Cl)cc3Cl)CC2)nc2c1CCCC2` [compound 2000], the class under setting [2] is recorded as 3 (Class 3 The value of percent of control at 10^−7 M was more than 60% or the value of IC50 was more than 200 nM.). With `CN(C)c1cc(NC2CCC(CNC(=O)OCc3ccccc3)CC2)nc2ccccc12` (stereo not drawn) [compound 182], the class under setting [2] was 3 (Class 3 The value of percent of control at 10^−7 M was more than 60% or the value of IC50 was more than 200 nM.). For `CN(C)c1ccnc(N[C@H]2CC[C@@H](NC(=O)c3ccc([N+](=O)[O-])cc3)CC2)n1` [compound 909, N-(cis-4-{[4-(dimethylamino)pyrimidin-2-yl]amino}cyclohexyl)-4-nitrobenzamide], the class under setting [1] was 2 (Class 2: The value of percent of control at 10^−7 M was from 40% to 60% or the value of IC′50 was from 50 nM to 200 nM.).

As to `CN(C)c1ccnc(N[C@H]2CC[C@@H](NC(=O)CCCOc3ccccc3)CC2)n1` [compound 338], the class under setting [1] is reported as 3 (Class 3 The value of percent of control at 10^−7 M was more than 60% or the value of IC50 was more than 200 nM.). For the molecule `CN(C)c1nc(N[C@H]2CC[C@@H](NC(=O)COc3ccc(Cl)cc3)CC2)nc2c1CCCC2` [compound 532], under setting [3], the class was 2 (Class 2: The value of percent of control at 10^−7 M was from 40% to 60% or the value of IC′50 was from 50 nM to 200 nM.). In the case of `Cc1cc(N[C@H]2CC[C@@H](NC(=O)c3cccc(Cl)c3)CC2)nc2ccccc12` [Example 2547, 3-chloro-N-{cis-4-[(4-methylquinolin-2-yl)amino]cyclohexyl}benzamide], the class was found to be 1. Turning to `CCOC(=O)c1c(NC(=S)N[C@H]2CC[C@@H](Nc3nc4c(c(N(C)C)n3)CCCC4)CC2)sc2c1CCCC2` [compound 2069], the class under setting [2] is listed as 3 (Class 3 The value of percent of control at 10^−7 M was more than 60% or the value of IC50 was more than 200 nM.).

As to `Cc1nc(N[C@H]2CC[C@@H](NC(=O)c3cnccn3)CC2)nc(N(C)C)c1C` [compound 2826], the class under setting [4] was 3 (Class 3 The value of percent of control at 10^−7 M was more than 60% or the value of IC50 was more than 200 nM.). On to `Cc1cc(Br)ccc1NC(=O)N[C@H]1CC[C@@H](Nc2cc(N(C)C)c3ccccc3n2)CC1` [compound 2159], for which the class under setting [1] is listed as 2 (Class 2: The value of percent of control at 10^−7 M was from 40% to 60% or the value of IC′50 was from 50 nM to 200 nM.). Same read-out and setting: as for `COc1cc(F)c(CNC[C@H]2CC[C@@H](Nc3nc4c(c(N(C)C)n3)CCCC4)CC2)cc1OC` [compound 1442], the figure is 3 (Class 3 The value of percent of control at 10^−7 M was more than 60% or the value of IC50 was more than 200 nM.); as for `CN(C)c1cc(N[C@H]2CC[C@@H](CNCCCCCCc3ccccc3)CC2)nc2ccccc12` [compound 1465], 3 (Class 3 The value of percent of control at 10^−7 M was more than 60% or the value of IC50 was more than 200 nM.).

In the case of `CN(C)c1ccnc(N[C@H]2CC[C@@H](NC(=O)OCC(C)(C)C)CC2)n1` [compound 1620], the class (activity class 1-3: percent of control at 10^-7 M or IC50) was 3 (Class 3 The value of percent of control at 10^−7 M was more than 60% or the value of IC50 was more than 200 nM.). Take `CCc1cccc(C)c1NC(=O)NC[C@H]1CC[C@@H](Nc2cc(N(C)C)c3ccccc3n2)CC1` [compound 2362, N-[(cis-4-{[4-(dimethylamino)quinolin-2-yl]amino}cyclohexyl)methyl]-N′-(2-ethyl-6-methylphenyl)urea]: under setting [5], the class was 2 (Class 2: The value of percent of control at 10^−7 M was from 40% to 60% or the value of IC′50 was from 50 nM to 200 nM.). Take `Cc1ccc([C@H](C)NC(=O)[C@H]2CC[C@@H](Nc3ncc(C)c(N(C)C)n3)CC2)cc1` [compound 2772, cis-4-{[4-(dimethylamino)-5-methylpyrimidin-2-yl]amino}-N-[(1S)-1-(4-methylphenyl)ethyl]cyclohexanecarboxamide]: the class under setting [4] was 1 (Class 1: The value of percent of control at 10^−7 M was less than 40% or the value of IC50 was less than 50 nM.). Consider `CN(C)c1nc(N[C@H]2CC[C@@H](CNC(=O)c3ccc(Cl)s3)CC2)nc2c1CCCC2` [compound 1065], for which the class (activity class per percent of control at 10^-7 M or IC50) was 3 (Class 3 The value of percent of control at 10^−7 M was more than 60% or the value of IC50 was more than 200 nM.).

For the molecule `CN(C)c1cc(N[C@H]2CC[C@@H](CNC(=O)/C=C/c3ccc([N+](=O)[O-])cc3)CC2)nc2ccccc12` [compound 206], the class under setting [2] is reported as 2 (Class 2: The value of percent of control at 10^−7 M was from 40% to 60% or the value of IC′50 was from 50 nM to 200 nM.). Still for that read-out and setting: in the case of `CN(C)c1nc(N[C@H]2CC[C@@H](NC(=S)NCCC3=CCCCC3)CC2)nc2c1CCCC2` [compound 2058] it was 3 (Class 3 The value of percent of control at 10^−7 M was more than 60% or the value of IC50 was more than 200 nM.).

On to `CN(C)c1cc(N[C@H]2CC[C@@H](CNC(=O)C(c3ccc(Cl)cc3)c3ccc(Cl)cc3)CC2)nc2ccccc12` [compound 800, 2,2-bis(4-chlorophenyl)-N-[(cis-4-{[4-(dimethylamino)quinolin-2-yl]amino}cyclohexyl)methyl]acetamide], for which the class under setting [1] was 3 (Class 3 The value of percent of control at 10^−7 M was more than 60% or the value of IC50 was more than 200 nM.). For the molecule `Cc1cc(N(C)C)nc(NC[C@H]2CC[C@@H](NC(=O)c3ccc(F)c(Cl)c3)CC2)n1` [compound 2746], the class under setting [4] was 3 (Class 3 The value of percent of control at 10^−7 M was more than 60% or the value of IC50 was more than 200 nM.).

On to `CN(C)c1nc(N[C@H]2CC[C@@H](NC(=S)Nc3ccc(Oc4ccccc4)cc3)CC2)nc2c1CCCC2` [compound 2053], for which the class under setting [2] was 3 (Class 3 The value of percent of control at 10^−7 M was more than 60% or the value of IC50 was more than 200 nM.). Regarding `Cc1ccccc1C(=O)NC[C@H]1CC[C@@H](Nc2nc3c(c(N(C)C)n2)CCCC3)CC1` [compound 658], the class under setting [1] was 3 (Class 3 The value of percent of control at 10^−7 M was more than 60% or the value of IC50 was more than 200 nM.). In the case of `Cc1cc(C(=O)NC[C@H]2CC[C@@H](Nc3cc(N(C)C)c4ccccc4n3)CC2)c(C)o1` [compound 198, N-[(cis-4-{[4-(dimethylamino)quinolin-2-yl]amino}cyclohexyl)methyl]-2,5-dimethyl-3-furamide], the class under setting [2] was 3 (Class 3 The value of percent of control at 10^−7 M was more than 60% or the value of IC50 was more than 200 nM.). In the case of `Cc1cc(Cl)ccc1NC(=S)N[C@H]1CC[C@@H](Nc2nccc(N(C)C)n2)CC1` [compound 2331], the class under setting [5] is reported as 3 (Class 3 The value of percent of control at 10^−7 M was more than 60% or the value of IC50 was more than 200 nM.).

As to `CN(C)c1nc(N[C@H]2CC[C@@H](CNC(=O)c3ccc(Cl)c(Cl)c3)CC2)nc2c1CCCC2` [compound 593], under setting [3], the class is reported as 3 (Class 3 The value of percent of control at 10^−7 M was more than 60% or the value of IC50 was more than 200 nM.). As to `CN(C)c1nc(NC2CCC(NC(=O)OCc3ccccc3)CC2)nc2c1CCCC2` (stereo not drawn) [compound 491], under setting [3], the class is on record as 3 (Class 3 The value of percent of control at 10^−7 M was more than 60% or the value of IC50 was more than 200 nM.). In the case of `CN(C)c1cc(N[C@H]2CC[C@@H](CNC(=O)Nc3ccc(F)c(Cl)c3)CC2)nc2ccccc12` [compound 2404], the class under setting [5] is listed as 3 (Class 3 The value of percent of control at 10^−7 M was more than 60% or the value of IC50 was more than 200 nM.). Turning to `CN(C)c1cc(N[C@H]2CC[C@@H](NC(=O)Cc3c(Cl)ccc(Cl)c3Cl)CC2)nc2ccccc12` [compound 674, N-(cis-4-{[4-(dimethylamino)quinolin-2-yl]amino}cyclohexyl)-2-(2,3,6-trichlorophenyl)acetamide], the class under setting [1] is 3 (Class 3 The value of percent of control at 10^−7 M was more than 60% or the value of IC50 was more than 200 nM.). Still for that read-out and setting: as for `CCOc1ccc(OCC)c(CNC[C@H]2CC[C@@H](Nc3cc(N(C)C)c4ccccc4n3)CC2)c1` [compound 1169], the figure is 2 (Class 2: The value of percent of control at 10^−7 M was from 40% to 60% or the value of IC′50 was from 50 nM to 200 nM.); as for `CN(C)c1ccnc(N[C@H]2CC[C@@H](CNC(=O)c3ccc(Cl)s3)CC2)n1` [compound 929], 3 (Class 3 The value of percent of control at 10^−7 M was more than 60% or the value of IC50 was more than 200 nM.).

`CN(C)c1ccnc(N[C@H]2CC[C@@H](NC(=O)Cc3ccc(Oc4ccccc4)cc3)CC2)n1` [compound 868]: under setting [1], the class is recorded as 3 (Class 3 The value of percent of control at 10^−7 M was more than 60% or the value of IC50 was more than 200 nM.). Consider `CC(=O)OC(C(=O)N[C@H]1CC[C@@H](Nc2nc3c(c(N(C)C)n2)CCCC3)CC1)c1ccccc1` (relative stereo) [compound 528], for which the class under setting [3] is reported as 1 (Class 1: The value of percent of control at 10^−7 M was less than 40% or the value of IC50 was less than 50 nM.). Regarding `CN(C)c1nc(N[C@H]2CC[C@@H](CNCc3ccc(N(C)C)c4ccccc34)CC2)nc2c1CCCC2` [compound 1402], the class under setting [1] was 2 (Class 2: The value of percent of control at 10^−7 M was from 40% to 60% or the value of IC′50 was from 50 nM to 200 nM.). Regarding `CN(C)c1cc(N[C@H]2CC[C@@H](CNC(=O)Nc3ccc(Cl)cc3C(F)(F)F)CC2)nc2ccccc12` [compound 2387], the class under setting [5] is reported as 3 (Class 3 The value of percent of control at 10^−7 M was more than 60% or the value of IC50 was more than 200 nM.).

For `COc1cccc(CNC[C@H]2CC[C@@H](Nc3cc(N(C)C)c4ccccc4n3)CC2)c1O` [compound 1196], the class under setting [1] was 3 (Class 3 The value of percent of control at 10^−7 M was more than 60% or the value of IC50 was more than 200 nM.).
